Source: PubChem BioAssay (NCI)
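Five compound concentrations were applied to cells in 96-well plates for 48 hours; endpoints were derived by simple linear interpolation of the resulting dose-response curve. Abbreviation: GI50, concentration required for 50% inhibition of growth. At the TGI there is no net growth.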

Legend:
Test in all cases: growth of human tumour cells (NCI), 48 h
HOP-62 NSCLC = test system: HOP-62 NSCLC
EKVX NSCLC = test system: EKVX NSCLC
HCT-15 colon = test system: HCT-15 colon
SN12C renal = test system: SN12C renal
PC-3 prostate = test system: PC-3 prostate
SNB-19 CNS = test system: SNB-19 CNS
M14 melanoma = test system: M14 melanoma
A498 renal = test system: A498 renal
LOX IMVI melanoma = test system: LOX IMVI melanoma
COLO 205 colon = test system: COLO 205 colon

Row | SMILES | GI50 (HOP-62 NSCLC) | TGI (HOP-62 NSCLC) | GI50 (EKVX NSCLC) | TGI (EKVX NSCLC) | GI50 (HCT-15 colon) | TGI (HCT-15 colon) | GI50 (SN12C renal) | TGI (SN12C renal) | GI50 (PC-3 prostate) | TGI (PC-3 prostate) | GI50 (SNB-19 CNS) | TGI (SNB-19 CNS) | GI50 (M14 melanoma) | TGI (M14 melanoma) | GI50 (A498 renal) | TGI (A498 renal) | GI50 (LOX IMVI melanoma) | TGI (LOX IMVI melanoma) | GI50 (COLO 205 colon) | TGI (COLO 205 colon)
1 | Cc1ccc(C(C)C)cc1NC(=O)Nc1ccc([N+](=O)[O-])cc1 | 2.53 µM | 5.92 µM | 2370 nM | 8.01 µM | 2440 nM | 8.94 µM | 2.28 µM | 8.97 µM | 2.75 µM | 12.2 µM | 2.99 µM | 12 µM | 2450 nM | 7.28 µM | 1.19 µM | 4.45 µM | 1990 nM | 4.82 µM | 1670 nM | 3.03 µM
2 | CC1COCC(C)N1C1=C(Cl)C(=O)c2ccccc2C1=O (stereo not drawn) | 14 µM | 27.4 µM | 1420 nM | 2.87 µM | 6500 nM | 23.4 µM | 11.3 µM | 23.5 µM | 3.92 µM | 17.8 µM | 14.9 µM | 28.1 µM | 6530 nM | 19.5 µM | 14.4 µM | 27.6 µM | 1410 nM | 2.77 µM | 13300 nM | 27 µM
3 | C=[CH][Sn]([CH]=C)([O]c1cccc2cccnc12)[O]c1cccc2cccnc12 | 10.7 µM | 32.8 µM | 5580 nM | 17.2 µM | 2360 nM | 6.4 µM | 4.45 µM | 17.5 µM | 3.85 µM | 29.7 µM | 8.36 µM | 23.8 µM | 2110 nM | 5.92 µM | 5.88 µM | 14.2 µM | 1460 nM | 4.86 µM | 1790 nM | 3.19 µM
4 | O=C(NCCCCCCCNC(=O)OCc1ccc2c(Cl)cc(Cl)c(O)c2n1)OCc1ccc2c(Cl)cc(Cl)c(O)c2n1 | 1.4 µM | 3.22 µM | 1550 nM | 3.22 µM | 221 nM | 0.542 µM | 0.774 µM | 2.17 µM | 0.625 µM | 2.16 µM | 1.59 µM | 3.06 µM | 419 nM | 1.73 µM | 1.48 µM | 2.89 µM | 187 nM | 0.379 µM | 564 nM | 2 µM
5 | COc1ccc(CCc2cc(OC)c(OC)c(OC)c2)cc1 |  | 14 µM |  | 70 µM |  | 10.2 µM |  | > 91.2 µM |  | > 62.6 µM |  | > 100 µM |  | 16 µM |  | 8.62 µM |  | 39.5 µM |  | 0.189 µM
6 | Nc1ccc2c(c1)c(N)nn2C(=O)Nc1ccc(Cc2ccccc2)cc1 | 11.2 µM | 27 µM | 14000 nM | 36.7 µM | 2750 nM | 14.2 µM | 13.4 µM | 30.9 µM | 4.33 µM | 24 µM | 13.9 µM | 27.3 µM | 4590 nM | 17.8 µM | 14.4 µM | 28.4 µM | 3380 nM | 16 µM | 13100 nM | 26.5 µM
7 | COc1cc([N+](=O)[O-])c2ncccc2c1[N+](=O)[O-] | 11.7 µM | 24.8 µM | 15400 nM | 29.4 µM | 5390 nM | 21.6 µM | 12.5 µM | 25.3 µM | 4.18 µM | 17 µM | 15.9 µM | 30.8 µM | 4240 nM | 15.8 µM | 12.3 µM | 32 µM | 2310 nM | 8.29 µM | 10100 nM | 22.9 µM
8 | CCOc1cc(-c2ccc[nH]2)[nH]c1/C=C1\N=C(C)C(C(=O)OC)=C1C | 0.0361 µM | 0.294 µM | 235 nM | 2.3 µM | 14.8 nM | 0.0705 µM | 0.0444 µM | 1.72 µM | 0.0357 µM | 2.13 µM | 0.239 µM | 2.91 µM | 34.8 nM | 1.18 µM | 0.47 µM | 1.92 µM | 10.2 nM | 0.0381 µM | 31 nM | 0.304 µM
9 | CCOP(=O)(OCC)C(C)(CC)NC(=O)C(C(F)(F)F)C(F)(F)F (stereo not drawn) |  | > 100 µM |  | > 100 µM |  | > 100 µM |  | > 100 µM |  | > 100 µM |  | > 100 µM |  | > 100 µM |  | > 100 µM |  | > 100 µM |  | > 100 µM
10 | COC(=O)c1c(C)nc(C)c(NO)c1-c1ccccc1C(F)(F)F |  | > 100 µM |  | > 100 µM |  | 32.3 µM |  | 62.4 µM |  | > 100 µM |  | > 100 µM |  | 39.5 µM |  | > 100 µM |  | > 100 µM |  | 70.2 µM
11 | Nc1ccc(S(=O)(=O)Nc2cnc3c(Cl)cccc3n2)cc1 | 24.6 µM | 188 µM |  | 712 µM | 43500 nM | > 562 µM | > 81.5 µM | > 750 µM | > 63.9 µM | > 750 µM | > 77.5 µM | 620 µM |  | > 750 µM |  | 597 µM | > 20200 nM | > 736 µM | > 74300 nM | 193 µM
12 | CCOP(=O)(Nc1ccc2oc(=O)c3ccccc3c2c1)OCC |  | > 100 µM |  | > 100 µM |  | > 100 µM |  | > 100 µM |  | > 100 µM |  | > 100 µM |  | > 100 µM |  | > 100 µM |  | > 100 µM |  | > 100 µM
13 | CC1CCC2N(C1)CC1C3(O)CC45OC6(O)C(O)CCC4(C)C6CCC5C3(O)CC(O)C1(O)C2(C)O (stereo not drawn) |  | > 100 µM |  | > 100 µM |  | > 100 µM |  | > 100 µM |  | > 100 µM |  | > 100 µM |  | > 100 µM |  | > 100 µM |  | > 100 µM |  | > 100 µM
14 | C#CCN(Cc1ccc2nc(N)[nH]c(=O)c2c1)c1ccc(C(=O)NC(CCC(=O)O)C(=O)O)cc1 (stereo not drawn) |  | > 100 µM |  | > 100 µM |  | > 100 µM |  | > 100 µM |  | > 100 µM |  | > 100 µM |  | > 100 µM |  | > 100 µM |  | > 100 µM |  | > 100 µM
15 | COc1ccc(C(O)CC(O)(C(F)(F)F)C(F)(F)F)cc1 (stereo not drawn) |  | > 100 µM |  | > 100 µM |  | > 100 µM |  | 60.8 µM |  | 55.7 µM |  | > 100 µM |  | > 100 µM |  | 64.1 µM |  | 36 µM |  | 33.8 µM
16 | CC/C=C\C/C=C\C[C@H](O)C/C=C1/C(=O)C=C[C@@H]1C/C=C\CCCC(=O)OC | 1.65 µM | 4.1 µM | 3150 nM | 10.9 µM | 494 nM | 2.38 µM | 1.9 µM | 5.01 µM | 2.54 µM | 6.68 µM | 3.05 µM | 13.7 µM | 1430 nM | 3.53 µM | 2.48 µM | 4.67 µM | 210 nM | 0.493 µM | 1770 nM | 3.78 µM
17 | Cc1nc(N)nc2ccccc12 |  | > 100 µM |  | > 100 µM |  | > 100 µM |  | > 100 µM |  | > 100 µM |  | > 100 µM |  | > 100 µM |  | > 100 µM |  | > 100 µM | > 100000 nM | > 100 µM
18 | N=C1C=C(N)C(=O)c2[nH]c(=O)ccc21 |  | 3.59 µM |  | 3.55 µM |  | 4.06 µM |  | 3.16 µM |  | 2.8 µM |  | 3.86 µM |  | 28.7 µM |  | 6.52 µM |  | 3.69 µM |  | 3.14 µM
19 | O=C1CN(/N=C/c2ccc(-c3ccc(F)cc3)o2)C(=O)N1 |  | > 100 µM |  | > 100 µM |  | > 100 µM |  | > 100 µM |  | > 100 µM |  | > 100 µM |  | > 100 µM |  | > 100 µM |  | > 100 µM |  | > 100 µM
20 | CC(NC(=O)c1ccccc1)(C(=O)O)C(=O)O |  | > 100 µM |  | > 100 µM |  | > 100 µM |  | > 100 µM |  | > 100 µM |  | > 100 µM |  | > 100 µM |  | > 100 µM |  | > 100 µM |  | > 100 µM
